Test results taken from patent US10022527B2, “Immersion device” (BSN medical GmbH, priority 2013, dated 2018).

What was measured:
[1] = cited from earlier work
[2] = Stability test of the NO content of the UV-generated NO-containing buffer solution (chemiluminescence detection); assay type: physicochemical; details: approximately 150 μM NO in buffered tap water pH 7.0 with 1.45 mM NaNO2 and 10 mM Na ascorbate; over a time span of 20 minutes; not statistically significant
Protocol: (§1) The NO-generating unit contained tap water, buffer salts (8 g/l NaCl+0.2 g/l KCl+1.424 g/l Na2HPO4+0.2 g/l KH2PO4, pH=7.0), 1.45 mM NaNO2 and 10 mM Na ascorbate.
(§2) UV radiation of this solution containing nitrite yielded a solution that contained approximately 150 μM NO. The stability of the generated NO and the occurrence of oxidation products were analyzed on the basis of this solution. Moreover, the effect in terms of perfusion and erythema formation was tested within the scope of its use as a foot bath.
This solution first underwent a stability test, that is to say, it was ascertained how the content of NO changes over a time span of 20 minutes. Every two minutes an aliquot of 10 ml of the bathing solution was pipetted into a flask (volume capacity of 175 ml) through which helium gas was flowing (100 ml/min) and which had already been filled with 40 ml of a PBS solution (pH of 7.4). During the entire procedure, the helium-gas mixtures escaping from the flask were conveyed directly into an NO analysis unit (Chemiluminescence Detector—CLD 822 Sr made by Eco Physics of Duernten, Switzerland) which detected and recorded the NO amounts in ppm (parts per million) that were contained in the gas mixture (in this context, also see Opländer et al. 2010—Nitric Oxide—Bio. Ch. 23: 275-283). […]

[3] = Generation of oxidation products (NO2) in the NO-containing solution; assay type: physicochemical; details: same solution
Protocol: as §1, §2
This solution first underwent a stability test, that is to say, it was ascertained how the content of NO changes over a time span of 20 minutes. […] During the entire procedure, the helium-gas mixtures escaping from the flask were conveyed directly into an NO analysis unit (Chemiluminescence Detector—CLD 822 Sr made by Eco Physics of Duernten, Switzerland) which detected and recorded the NO amounts in ppm (parts per million) that were contained in the gas mixture (in this context, also see Opländer et al. 2010—Nitric Oxide—Bio. Ch. 23: 275-283).
Using the solution described above, parallel to the above-mentioned NO detection, the amount of nitrogen dioxide radicals, as the most important oxidation product of NO, was detected during the same measurement. […]

[4] = cited from earlier work; remark: listed apart in the source

[N]=O [NO, nitric oxide]
diffusion coefficient of NO relative to that of oxygen or carbon monoxide ([1]; at 37° C.): approximately 1.4 | diffusion path that can be achieved in the tissues ([1]; calculated on the basis of the diffusion coefficient): 500 μm | drop of NO content [2]: about 10% | concentration of NO2 (oxidation product of NO) ([3]; occurred only after 10 minutes): ~1.5 ppm | measured NO2 values compared with the initial values ([3]; up to the maximum time value of 20 minutes): not significantly higher than the initial values | maximum solubility of NO in aqueous solutions [4]: approximately 2 mM
